According to patent US7354941B2, “Nicotinamide benzofused-heterocyclyl derivatives useful as selective inhibitors of PDE4 isozymes” (Pfizer Products Inc., priority 2000, dated 2008):

Experiments:
PDE4 = conditions: cited from earlier work
guinea-pig trachea = conditions: cited from earlier work
allergic rhinitis = conditions: in vivo; cited from earlier work
[1] = in vivo; cited from earlier work
[2] = system: high-affinity rolipram binding site (Sr); conditions: cited from earlier work
atopic dermatitis = conditions: topical, cited from earlier work
rhinorrhea = conditions: antigen-challenged pig; cited from earlier work
[3] = system: histamine-induced and antigen-induced bronchoconstriction; conditions: guinea-pig; cited from earlier work
[4] = system: antigen-induced bronchoconstriction; conditions: guinea-pig; cited from earlier work
colitis = conditions: rat; cited from earlier work
[5] = system: streptococcal cell wall (SCW)-induced arthritis; conditions: in vivo; cited from earlier work
TNF-α mRNA expression = conditions: collagen II treated mice; cited from earlier work
[6] = system: rheumatoid arthritis patients; conditions: 35 patients, t.i.d., placebo-controlled; cited from earlier work
[7] = system: antigen-induced lung eosinophilia; conditions: guinea-pig; cited from earlier work
[8] = system: antigen-induced bronchospasm; conditions: rat; cited from earlier work
psoriatic lesions = conditions: two double-blind studies versus vehicle; cited from earlier work
[9] = system: human peripheral blood mononuclear cells (HPBM); conditions: normal patients and subjects with atopic dermatitis; cited from earlier work
[10] = system: psoriatic epidermal slices; conditions: cited from earlier work
epidermal basal cells = conditions: primary culture; cited from earlier work
[11] = system: endotoxin-induced acute renal failure; conditions: cited from earlier work
patients with COPD = conditions: cited from earlier work
patients = conditions: orally 5, 10, and 15 mg b.i.d., week 2; cited from earlier work
[12] = system: seratonin-induced bronchoconstriction; conditions: dog; cited from earlier work
[13] = system: Patients with severe COPD; conditions: cited from earlier work; for mean pulmonary artery pressure: oral administration, severe COPD
[14] = system: isolated pulmonary artery rings; conditions: rings from normal rats and rats with hypoxia-induced pulmonary hypertension; cited from earlier work
[15] = system: lipopolysaccharide-induced bowel erythrocyte extravasation; conditions: pretreatment i.p. 3×, rats; cited from earlier work
[16] = system: patients suffering from septic shock; conditions: 1 mg/kg/hr, after 24 hours; cited from earlier work

`O=C(NCc1ccc(C(O)C(F)(F)F)cc1)c1cccnc1Oc1ccc2nonc2c1` (racemic) [Example 5, (±)-2-[Benzo[2,1,3]oxadiazol-5-yloxy]-N-[4-[2,2,2-trifluoro-1-hydroxy-ethyl]-benzyl]-nicotinamide] showed a melting point of 164 to 166 °C.
For `CC(O)c1ccc(CNC(=O)c2cccnc2Oc2ccc3nonc3c2)s1` (racemic) [Example 6, (±)-2-[Benzo[2,1,3]oxadiazol-5-yloxy]-N-[5-[1-hydroxy-ethyl]-thiophen-2-ylmethyl]-nicotinamide], the melting point was 81 to 83 °C.
`CC(NC(=O)c1cccnc1Oc1ccc2nonc2c1)c1ccc(C(C)(C)O)cc1F` (racemic) [Example 8, (±)-2-(Benzo[2,1,3]oxadiazol-5-yloxy)-N-{1-[2-fluoro-4-(1-hydroxy-1-methyl-ethyl)-phenyl]-ethyl}-nicotinamide] gave a melting point of 128 to 130 °C.
Compound `CC(NC(=O)c1cccnc1Oc1ccc2nonc2c1)c1ccc(C(C)(C)O)cc1` (racemic) [Example 17, (±)-2-(Benzo[2,1,3]oxadiazol-5-yloxy)-N-{1-[4-(1-hydroxy-1-methyl-ethyl)-phenyl]ethyl}-nicotinamide] has a melting point of 116 to 117 °C.
In the case of `COc1ccc(-c2nc3cnccc3o2)c2c1OC1(CCCC1)C2` [(0.0.48)], the IC50 (PDE4) is given as 0.0025 µM.
For `O=S1(=O)CCN(c2nc(NC3CC3)nc(C3CC3)n2)C1` [(0.0.56)], the “relaxant activity, guinea-pig trachea model” value (guinea-pig trachea) is listed as “potent relaxant agents” and the IC50 (PDE4) is listed as 0.15 µM.
For `CC1CC1c1nc(NC2CC2)nc(N2CCOCC2)n1` (stereo not shown) [(0.0.57)], the “relaxant activity, guinea-pig trachea model” value (guinea-pig trachea) is listed as “potent relaxant agents” and the IC50 (PDE4) is listed as 0.14 µM.
For `O=C(Nc1c(Cl)cncc1Cl)C(=O)c1cn(Cc2ccc(F)cc2)c2ccc(O)cc12` [AWD-12,281], the “activity in a rat model of allergic rhinitis” value (allergic rhinitis) is given as “active”.
In the case of `Nc1nc2c([nH]1)c(=O)n(CC1CC1)c(=O)n2CC1CC1` [BRL-61,063], the “adverse events of nausea and vomiting” value [1] is listed as “adverse events of nausea and vomiting”.
In the case of `COc1ccc(C2CNC(=O)NC2)cc1O[C@H]1C[C@@H]2CC[C@H]1C2` [CP-80,633], the “affinity at the Sr” value [2] is given as “high affinity at the Sr”, the inflammatory parameters (atopic dermatitis; bilaterally over eight days, twenty patients) is given as “effectively inhibit all of the inflammatory parameters tested” and the adverse effects (atopic dermatitis; eight days) is given as “no adverse effects”. For the same compound, the emesis [1] was “elicit emesis”.
In the case of `CC(C)(O)c1ccc(CNC(=O)c2cccnc2Oc2ccc3nonc3c2)c(F)c1` [Example 2, 2-[Benzo[2,1,3]oxadiazol-5-yloxy]-N-[2-fluoro-4-[1-hydroxy-1-methyl-ethyl]-benzyl]-nicotinamide], the melting point is reported as 160 to 161 °C.
Compound `CC(=O)c1ccc(CNC(=O)c2cccnc2Oc2ccc3nonc3c2)cc1` [Example 7, N-[4-Acetyl-benzyl]-2-[benzo[2,1,3]oxadiazol-5-yloxy]-nicotinamide] has a melting point of 154 to 156 °C.
With `CC(C)(O)c1ccc(CNC(=O)c2cccnc2Oc2ccc3nonc3c2)c(Cl)c1` [Example 9, 2-(Benzo[2,1,3]oxadiazol-5-yloxy)-N-[2-chloro-4-(1-hydroxy-1-methyl-ethyl)-benzyl]-nicotinamide] the melting point was 171 to 173 °C.
In the case of `CCCn1c(=O)c2c(C)nc(CC)n2c2nc(OC)ccc21` [Example D-22888], the “anti-allergic effect and rhinorrhea” value (rhinorrhea) is listed as “exhibit a strong anti-allergic affect and to inhibit rhinorrhea”.
In the case of `O=c1c2[nH]cnc2c2cccnc2n1-c1ccccc1` [KF17625], the “inhibition of histamine- and antigen-induced bronchoconstriction, PAF- and antigen-induced eosinophilia, AHR, bronchospasm, anaphylactic bronchoconstriction” value [3] is given as “activity”.
In the case of `O=c1c2c(ncn2Cc2cccnc2)c2cccnc2n1-c1ccccc1` [KF19514], the “inhibition of histamine- and antigen-induced bronchoconstriction, PAF- and antigen-induced eosinophilia, AHR, bronchospasm, anaphylactic bronchoconstriction” value [3] is listed as “activity”.
In the case of `CCCn1c(=O)c2[nH]cnc2n(-c2ccc(Cl)cc2)c1=O` [LAS-31025], the “inhibition of antigen-induced bronchoconstriction” value [4] is given as “active”, the “effects in dextran sulfate induced colitis model” value (colitis) is given as “beneficial effects comparable to prednisolone” and the “effects in models of colitis” value (colitis) is given as “beneficial effects”.
In the case of `COc1ccc(C(=O)Nc2c(Cl)cncc2Cl)cc1OC1CCCC1` [RP-73,401], the “affinity at the Sr” value [2] is listed as “high affinity at the Sr”, the “disease: joint destruction, synovitis, and fibrosis” value [5] is listed as “significant amelioration of disease” and the emesis [1] is listed as “elicit emesis”. The “TNF-α mRNA expression at the pannus/cartilage interface of paw joints” value (TNF-α mRNA expression) was “decrease TNF-α mRNA expression”, the clinical improvement [6] was “positive trend towards clinical improvement” and the “inhibition of antigen-induced lung, BAL and airway eosinophilia, EPO, PAF- and ozone-induced AHR, IL-5 induced pleural eosinophila” value [7] was “active”.
For `COc1ccc(CNc2c(C)noc2C)cc1OC1CCCC1` [RPR-132294], the “inhibition of antigen-induced bronchospasm” value [8] is given as “activity in the inhibition of antigen-induced bronchospasm”.
In the case of `O=c1c2cccnc2n(-c2cccc([N+](=O)[O-])c2)c(=O)n1Cc1ccncc1` [RS-23,544], the “affinity at the Sr” value [2] is listed as “high affinity at the Sr” and the emesis [1] is listed as “elicit emesis”.
In the case of `COc1ccc(CC2CNC(=O)N2)cc1OC1CCCC1` (stereo not shown) [Ro 20-1724], the “psoriatic lesions and adverse effects” value (psoriatic lesions) is given as “improve psoriatic lesions without adverse systemic or cutaneous effects”, the “inhibition of the proliferation of HPBM” value [9] is given as “concentration-related inhibition” and the “increase in cAMP concentration” value ([10]; keratomed psoriatic epidermis) is given as 1395%. The “cAMP concentrations over controls” value ([10]; psoriatic epidermal slices and keratomed psoriatic epidermal slices) was “very marked elevation of cAMP concentrations over controls”, the cAMP concentrations (epidermal basal cells) was “three-fold increase” and the survival rates ([11]; endotoxin-treated rats) was “improve survival rates”. The “renal vascular resistance, renal blood flow and glomerular filtration rate” value ([11]; post-treatment at 10 μg/kg/min) was “markedly attenuates endotoxin-induced increases in renal vascular resistance and decreases in renal blood flow and glomerular filtration rate” and the “urinary cAMP excretion” value ([11]; post-treatment at 10 μg/kg/min) was “significantly increases urinary cAMP excretion”.
In the case of `COc1ccc([C@]2(C#N)CC[C@@H](C(=O)O)CC2)cc1OC1CCCC1` [SB-207,499], the “affinity at the Sr” value [2] is given as “comparatively low affinity at the Sr”, the “improvement in trough FEV1” value (patients with COPD; 15 mg b.i.d., week 6) is given as 11% and the “maximum mean difference in trough FEV1 compared with placebo” value (patients with COPD; 15 mg b.i.d., week 6) is given as 160 mL. For the same compound, the “FEV1 and forced vital capacity (FVC)” value (patients with COPD; 15 mg twice a day for six weeks) was “increrases in FEV1 and forced vital capacity (FVC)”, the FEV1 (patients with COPD; four week trial) was “evidence of improved FEV1” and the “trough FEV1 from placebo” value (patients) was “significant increases”.
For `COc1ccc(/C(C)=N/OC(N)=O)cc1OC1CCCC1` [WAY-PDA-641], the “inhibition of seratonin-induced bronchoconstriction” value [12] is given as “active”.
For `CSc1ccc(C(=O)c2[nH]c(=O)[nH]c2C)cc1` [enoximone], the “mean pulmonary artery pressure” value [13] is given as “decreases in mean pulmonary artery pressure” and the airway resistance ([13]; patients hospitalized with decompensated COPD) is given as “reduce airway resistance”.
For `Cc1[nH]c(=O)c(C#N)cc1-c1ccncc1` [milrinone], the “mean pulmonary artery pressure” value [13] is given as “decreases in mean pulmonary artery pressure” and the “relaxant activities of isoproterenol and forskolin” value [14] is given as “same effect has been observed”.
For `CC(=O)CCCCn1c(=O)c2c(ncn2C)n(C)c1=O` [pentoxifylline], the “lipopolysaccharide-induced bowel erythrocyte extravasation” value [15] is given as “reduces lipopolysaccharide-induced bowel erythrocyte extravasation”, the IL-6 levels [16] is given as “significantly increased” and the TNF-α levels [16] is given as “significantly lowered”.
